What was measured:
[1] = Determination of pKa of formulated lipids (TNS fluorescence assay in lipid nanoparticles); type: physicochemical; settings: lipid nanoparticles (compound/DSPC/cholesterol/PEG-lipid), lipid formulated in LNP (lipid/DSPC/cholesterol/PEG-lipid), pH at half-maximal intensity
Method: As described elsewhere, the pKa of formulated lipids is correlated with the effectiveness of LNPs for delivery of nucleic acids (see Jayaraman et al, Angewandte Chemie, International Edition (2012), 51(34), 8529-8533; Semple et al, Nature Biotechnology 28, 172-176 (2010)). In some embodiments, the preferred range of pKa is ˜5 to ˜7. The pKa of each lipid is determined in lipid nanoparticles using an assay based on fluorescence of 2-(p-toluidino)-6-napthalene sulfonic acid (TNS). Lipid nanoparticles comprising compound of structure (I)/DSPC/cholesterol/PEG-lipid (50/10/38.5/1.5 or 47.5:10:40.7:1.8 mol %) in PBS at a concentration of 0.4 mM total lipid are prepared using the in-line process as described in Example 1. TNS is prepared as a 100 μM stock solution in distilled water. Vesicles are diluted to 24 μM lipid in 2 mL of buffered solutions containing 10 mM HEPES, 10 mM MES, 10 mM ammonium acetate, and 130 mM NaCl, where the pH ranged from 2.5 to 11. An aliquot of the TNS solution is added to give a final concentration of 1 μM and following vortex mixing fluorescence intensity is measured at room temperature in a SLM Aminco Series 2 Luminescence Spectrophotometer using excitation and emission wavelengths of 321 nm and 445 nm. A sigmoidal best fit analysis is applied to the fluorescence data and the pKa is measured as the pH giving rise to half-maximal fluorescence intensity.

human IgG in mouse serum = assay: Immunoglobulin G (IgG) mRNA in vivo evaluation using lipid nanoparticle compositions; design: species or system mice; settings: LNP with IgG mRNA, tail vein injection, serum 24 hours after administration; for Serum IgG @ 0.3 mg/kg: 0.3 mg mRNA/kg; for Serum IgG @ 1.0 mg/kg: 1.0 mg mRNA/kg
Method: (§1) A lipid of structure (I), DSPC, cholesterol and PEG-lipid are solubilized in ethanol at a molar ratio of 50:10:38.5:1.5 or 47.5:10:40.7:1.8. Lipid nanoparticles (LNP) are prepared at a total lipid to mRNA weight ratio of approximately 10:1 to 40:1. Briefly, the mRNA is diluted to 0.2 mg/mL in 10 to 50 mM citrate buffer, pH 4 or 10 to 25 mM acetate buffer, pH 4. Syringe pumps are used to mix the ethanolic lipid solution with the mRNA aqueous solution at a ratio of about 1:5 to 1:3 (vol/vol) with total flow rates above 15 mL/min. The ethanol is then removed and the external buffer replaced with PBS by dialysis. Finally, the lipid nanoparticles are filtered through a 0.2 µm pore sterile filter.
Studies are performed in 6-8 week old CD-1/ICR mice (Envigo) according to guidelines established by an institutional animal care committee (ACC) and the Canadian Council on Animal Care (CCAC). Varying doses of mRNA-lipid nanoparticle are systemically administered by tail vein injection and animals euthanized at a specific time point (e.g., 24 hours) post-administration. The whole blood is collected, and the serum subsequentially separated by centrifuging the tubes of the whole blood at 2000×g for 10 minutes at 4° C. and stored at −80° C. until use for analysis.
For immunoglobulin G (IgG) ELISA (Life Diagnostics Human IgG ELISA kit), the serum samples are diluted at 100 to 15000 folds with 1×diluent solution. 100 μL of diluted serum is dispensed into anti-human IgG coated 96-well plate in duplicate alongside human IgG standards and incubated in a plate shaker at 150 rpm at 25° C. for 45 minutes. The wells are washed 5 times with 1× wash solution using a plate washer (400 μL/well). 100 μL of HRP conjugate is added into each well and incubated in a plate shaker at the same condition above. The wells are washed 5 times again with 1× wash solution using a plate washer (400 μL/well). 100 μL of TMB reagent is added into each well and incubated in a plate shaker at the same condition above. The reaction is stopped by adding 100 μL of Stop solution to each well. The absorbance is read at 450 nm (A450) with a microplate reader. The amount of human IgG in mouse serum is determined by plotting A450 values for the assay standard against human IgG concentration.
(§2) Representative compounds of the disclosure shown in Table 2 were formulated using the following molar ratio: 50% cationic lipid/10% distearoylphosphatidylcholine (DSPC)/38.5% Cholesterol/1.5% PEG lipid 2-[2-(ω-methoxy(polyethyleneglycol2000)ethoxy]-N,N-ditetradecyl acetamide) or 47.5% cationic lipid/10% DSPC/40.7% Cholesterol/1.8% PEG lipid. Relative activity was determined by measuring luciferase expression in the liver 4 hours following administration via tail vein injection as described in Example 1 or by measuring the amount of human IgG in mouse serum as described in example 2. The activity was compared at a dose of 1.0 or 0.5 or 0.3 mg mRNA/kg and expressed as ng luciferase/g liver measured 4 hours after administration, as described in Example 1 or as μg IgG/mL serum measured 24 hours after administration, as described in Example 2. Compound numbers in Table 2 refer to the compound numbers of Table 1.

[2] = test system: luciferase expression in the liver; assay: Luciferase mRNA in vivo evaluation using lipid nanoparticle compositions; design: species or system mice; settings: LNP with FLuc mRNA, tail vein injection, ng luciferase/g liver 4 hours after administration; for Liver Luc @ 0.3 mg/kg: 0.3 mg mRNA/kg; for Liver Luc @ 1.0 mg/kg: 1.0 mg mRNA/kg
Method: as §1
Studies are performed in 6-8 week old female C57BL/6 mice (Charles River) 8-10 week old CD-1 (Harlan) mice (Charles River) according to guidelines established by an institutional animal care committee (ACC) and the Canadian Council on Animal Care (CCAC). Varying doses of mRNA-lipid nanoparticle are systemically administered by tail vein injection and animals euthanized at a specific time point (e.g., 4 hours) post-administration. Liver and spleen are collected in pre-weighed tubes, weights determined, immediately snap frozen in liquid nitrogen and stored at −80° C. until processing for analysis.
For liver, approximately 50 mg is dissected for analyses in a 2 mL FastPrep tubes (MP Biomedicals, Solon OH). ¼″ ceramic sphere (MP Biomedicals) is added to each tube and 500 μL of Glo Lysis Buffer—GLB (Promega, Madison WI) equilibrated to room temperature is added to liver tissue. Liver tissues are homogenized with the FastPrep24 instrument (MP Biomedicals) at 2×6.0 m/s for 15 seconds. Homogenate is incubated at room temperature for 5 minutes prior to a 1:4 dilution in GLB and assessed using SteadyGlo Luciferase assay system (Promega). Specifically, 50 μL of diluted tissue homogenate is reacted with 50 μL of SteadyGlo substrate, shaken for 10 seconds followed by 5 minute incubation and then quantitated using a CentroXS^3 LB 960 luminometer (Berthold Technologies, Germany). The amount of protein assayed is determined by using the BCA protein assay kit (Pierce, Rockford, IL). Relative luminescence units (RLU) are then normalized to total μg protein assayed. To convert RLU to ng luciferase a standard curve is generated with QuantiLum Recombinant Luciferase (Promega).
The FLuc mRNA (L-6107) from Trilink Biotechnologies will express a luciferase protein, originally isolated from the firefly, Photinus pyralis. FLuc is commonly used in mammalian cell culture to measure both gene expression and cell viability. It emits bioluminescence in the presence of the substrate, luciferin. This capped and polyadenylated mRNA is fully substituted with 5-methylcytidine and pseudouridine.
as §2

CCCCCCCCCCCCN(CCCCCCCCCCCC)C(=O)CCCCCN(C)CCCCCC(=O)N(CCCCCCCCCCCC)CCCCCCCCCCCC [Compound I-11, 6,6′-(methylazanediyl)bis(N,N-didodecylhexanamide)]
pKa [1]: 6.67
Serum IgG @ 0.3 mg/kg (human IgG in mouse serum): 8.22 ± 0.84 µg/mL
Serum IgG @ 1.0 mg/kg (human IgG in mouse serum): 47.68 ± 5.26 µg/mL

CCCCCCCCCCCCN(CCCCCCCCCCCC)C(=O)CCCCCCCN(CCO)CCCCCCCC(=O)N(CCCCCCCCCCCC)CCCCCCCCCCCC [Compound I-37, 8,8′-((2-hydroxyethyl)azanediyl)bis(N,N-didodecyloctanamide)]
pKa [1]: 6.39
Serum IgG @ 0.3 mg/kg (human IgG in mouse serum): 1.75 ± 0.58 µg/mL
Serum IgG @ 1.0 mg/kg (human IgG in mouse serum): 10.05 ± 2.32 µg/mL

CCCCCCCCCCCCN(CCCCCCCCCCCC)C(=O)CCCCCN(CCCCCCO)CCCCCC(=O)N(CCCCCCCCCCCC)CCCCCCCCCCCC [Compound I-38, 6,6′-((6-hydroxyhexyl)azanediyl)bis(N,N-didodecylhexanamide)]
pKa [1]: 6.48
Serum IgG @ 0.3 mg/kg (human IgG in mouse serum): 4.71 ± 0.46 µg/mL
Serum IgG @ 1.0 mg/kg (human IgG in mouse serum): 45.87 ± 2.33 µg/mL

CCCCCCCCCCCCN(CCCCCCCCCCCC)C(=O)CCCCCCCN(C)CCCCCCCC(=O)N(CCCCCCCCCCCC)CCCCCCCCCCCC [Compound I-40, 8,8′-(methylazanediyl)bis(N,N-didodecyloctanamide)]
pKa [1]: 6.17
Serum IgG @ 0.3 mg/kg (human IgG in mouse serum): 16.72 ± 5.38 µg/mL
Serum IgG @ 1.0 mg/kg (human IgG in mouse serum): 101.96 ± 4.12 µg/mL

CCCCCCCCCCN(CCCCCCCCCC)C(=O)CCCCCCCN(CCCO)CCCCCCCC(=O)N(CCCCCCCCCC)CCCCCCCCCC [Compound I-41, 8,8′-((3-hydroxypropyl)azanediyl)bis(N,N-didecyloctanamide)]
pKa [1]: 6.6
Serum IgG @ 0.3 mg/kg (human IgG in mouse serum): 4.78 ± 1.65 µg/mL

CCCCCCCCCCN(CCCCCCCCCC)C(=O)CCCCCCCN(CCCCCCCC(=O)N(CCCCCCCCCC)CCCCCCCCCC)CCOCCO [Compound I-42, 8,8′-((2-(2-hydroxyethoxy)ethyl)azanediyl)bis(N,N-didecyloctanamide)]
pKa [1]: 6.66
Serum IgG @ 0.3 mg/kg (human IgG in mouse serum): 3.13 ± 0.27 µg/mL
Serum IgG @ 1.0 mg/kg (human IgG in mouse serum): 12.42 ± 3.81 µg/mL

CCCCCCCCCCN(CCCCCCCCCC)C(=O)CCCCCCCN(CCCCCCCC(=O)N(CCCCCCCCCC)CCCCCCCCCC)CCCC(C)(C)CO [Compound I-43, 8,8′-((5-hydroxy-4,4-dimethylpentyl)azanediyl)bis(N,N-didecyloctanamide)]
pKa [1]: 6.02
Serum IgG @ 0.3 mg/kg (human IgG in mouse serum): 2.45 ± 0.66 µg/mL
Serum IgG @ 1.0 mg/kg (human IgG in mouse serum): 9.97 ± 1.17 µg/mL

CCCCCCCCCCN(CCCCCCCCCC)C(=O)CCCCCCCN(CCCCCCCC(=O)N(CCCCCCCCCC)CCCCCCCCCC)CCCn1ccnc1C [Compound I-44, 8,8′-((3-(2-methyl-1H-imidazol-1-yl)propyl)azanediyl)bis(N,N-didecyloctanamide)]
pKa [1]: 6.69
Serum IgG @ 0.3 mg/kg (human IgG in mouse serum): 0.59 ± 0.11 µg/mL
Serum IgG @ 1.0 mg/kg (human IgG in mouse serum): 1.86 ± 0.27 µg/mL

CCCCCCCCCCN(CCCCCCCCCC)C(=O)CCCCCCCN(CCCCCCCO)CCCCCCCC(=O)N(CCCCCCCCCC)CCCCCCCCCC [Compound I-45, 8,8′-((7-hydroxyheptyl)azanediyl)bis(N,N-didecyloctanamide)]
pKa [1]: 5.96
Serum IgG @ 0.3 mg/kg (human IgG in mouse serum): 3.03 ± 0.66 µg/mL
Serum IgG @ 1.0 mg/kg (human IgG in mouse serum): 13.00 ± 2.05 µg/mL

CCCCCCCCCCN(CCCCCCCCCC)C(=O)CCCCCCCN(CCCCCCCC(=O)N(CCCCCCCCCC)CCCCCCCCCC)CCCn1ccnc1 [Compound I-48, 8,8′-((3-(1H-imidazol-1-yl)propyl)azanediyl)bis(N,N-didecyloctanamide)]
pKa [1]: 6.63
Serum IgG @ 0.3 mg/kg (human IgG in mouse serum): 1.02 ± 0.20 µg/mL
Serum IgG @ 1.0 mg/kg (human IgG in mouse serum): 3.40 ± 0.87 µg/mL

CCCCCCCCCCN(CCCCCCCCCC)C(=O)CCCCCCCN(CCCCCCCC(=O)N(CCCCCCCCCC)CCCCCCCCCC)CCCNc1c(NC)c(=O)c1=O [Compound I-50, 8,8′-((3-((2-(methylamino)-3,4-dioxocyclobut-1-en-1-yl)amino)propyl)azanediyl)bis(N,N-didecyloctanamide)]
pKa [1]: 6.73
Serum IgG @ 0.3 mg/kg (human IgG in mouse serum): 1.32 ± 0.28 µg/mL
Serum IgG @ 1.0 mg/kg (human IgG in mouse serum): 11.05 ± 2.19 µg/mL

CCCCCCCCCCN(CCCCCCCCCC)C(=O)CCCCCCCCCN(CCCCCCCCCC(=O)N(CCCCCCCCCC)CCCCCCCCCC)CCCNc1c(NC)c(=O)c1=O [Compound I-60, 10,10′-((3-((2-(methylamino)-3,4-dioxocyclobut-1-en-1-yl)amino)propyl)azanediyl)bis(N,N-didecyldecanamide)]
Liver Luc @ 0.3 mg/kg [2]: 2176 ± 162 ng/g
Liver Luc @ 1.0 mg/kg [2]: 9178 ± 2483 ng/g
pKa [1]: 6.38

CCCCCCCCCCN(CCCCCCCCN(C)CCCCCCCCN(CCCCCCCCCC)C(=O)CCCCCCCCC)C(=O)CCCCCCCCC [Compound I-65]
Liver Luc @ 0.3 mg/kg [2]: 3172 ± 658 ng/g
Liver Luc @ 1.0 mg/kg [2]: 24740 ± 6297 ng/g
pKa [1]: 6.33

CCCCCCCCC(CCCCCC)C(=O)N(C)CCCCCCCCN(C)CCCCCCCCN(C)C(=O)C(CCCCCC)CCCCCCCC (centres unmarked) [Compound I-70, N,N′-((methylazanediyl)bis(octane-8,1-diyl))bis(2-hexyl-N-methyldecanamide)]
Liver Luc @ 0.3 mg/kg [2]: 7516 ± 1487 ng/g
Liver Luc @ 1.0 mg/kg [2]: 33238 ± 9902 ng/g
pKa [1]: 6.17

Reference: patent US12129223B2, “Lipids for use in lipid nanoparticle formulations” (Acuitas Therapeutics, Inc., priority 2021, dated 2024)
